Data taken from patent US20120189547A1 (priority 2009, published 2012).

What was measured:
[1] = system: GABAA receptor; conditions: cited from earlier work
[2] = cited from earlier work
[3] = In vivo biodistribution in naive male Sprague-Dawley rats; conditions: rat; for Time at which regional differentiation remained apparent / Pituitary gland / Thalamus: male, Sprague-Dawley; for Time at which regional differentiation remained apparent / Pituitary gland / Thalamus / Clearance from whole brain after peak uptake: in vivo; for Whole brain uptake, peak: at the time of peak; for Regional differentiation between GABA-rich and GABA-poor regions of the brain: in vivo biodistribution; for Cerebellum / Hippocampus / Pons/Medulla / Pre-frontal cortex / Striatum: lateral tail vein, mean (SD), n = 3; for Pre-frontal cortex: thalmus: ratio
Description: Adult male Sprague-Dawley rats (body weight 202±37 g; mean±SD) were injected with between 1 and 5 MBq of [^18F]-Compound 1 via a lateral tail vein. All animals were conscious, but lightly restrained during injection and subsequently housed in short-term metabolism cages. At the appropriate time point; 30 seconds, 2, 10, 30 and 60 minutes post-injection (pi) (n=3 per time point), the animals were sacrificed by cervical dislocation. The brain and peripheral tissues or fluids were sampled post-mortem. Radioactivity in the brain samples was measured using a Wallac gamma counter. Once assayed, the brain samples, along with the remaining organ or tissue samples were assayed using a twin-crystal gamma-counter system (BASIL), with automatic correction for radioactive decay.
The biodistribution protocol described in Example 6 for Compound 1 was used to assess Compound 2.

CN1Cc2c(C(=O)OCC[18F])ncn2-c2ccc(F)cc2C1=O [[18F]FFMZ, [18F]fluoroflumazenil]
Selective binding to GABAA receptors ([1]; reported in prior art): high selective binding
Brain uptake ([2]; reported in prior art): high

CCOC(=O)c1ncn2c1CN(C)C(=O)c1cc(OCC[18F])ccc1-2 [[18F]-Compound 1]
Time at which regional differentiation remained apparent [3]: 30 minutes pi
Pituitary gland ([3]; 0.5 min): 0.60 (0.1) % id/g
Thalamus ([3]; 0.5 min): 0.30 (0.11) % id/g
Pituitary gland ([3]; 2 min): 0.69 (0.13) % id/g
Thalamus ([3]; 2 min): 0.47 (0.07) % id/g
Pituitary gland ([3]; 10 min): 0.55 (0.10) % id/g
Thalamus ([3]; 10 min): 0.39 (0.05) % id/g
Pituitary gland ([3]; 30 min): 0.30 (0.02) % id/g
Thalamus ([3]; 30 min): 0.24 (0.05) % id/g
Pituitary gland ([3]; 60 min): 0.26 (0.08) % id/g
Thalamus ([3]; 60 min): 0.20 (0.07) % id/g
Time of peak whole brain uptake [3]: 10 minutes pi
Whole brain uptake, peak [3]: 0.9%
Clearance from whole brain after peak uptake [3]: slow with a decreasing rate
Regional differentiation between GABA-rich and GABA-poor regions of the brain [3]: good
Cerebellum ([3]; 0.5 min post-injection): 0.28 (0.06) % id/g
Hippocampus ([3]; 0.5 min post-injection): 0.26 (0.08) % id/g
Pons/Medulla ([3]; 0.5 min post-injection): 0.23 (0.04) % id/g
Pre-frontal cortex ([3]; 0.5 min post-injection): 0.33 (0.1) % id/g
Striatum ([3]; 0.5 min post-injection): 0.26 (0.07) % id/g
Cerebellum ([3]; 2 min post-injection): 0.43 (0.03) % id/g
Hippocampus ([3]; 2 min post-injection): 0.43 (0.06) % id/g
Pons/Medulla ([3]; 2 min post-injection): 0.34 (0.02) % id/g
Pre-frontal cortex ([3]; 2 min post-injection): 0.57 (0.02) % id/g
Striatum ([3]; 2 min post-injection): 0.41 (0.04) % id/g
Cerebellum ([3]; 10 min post-injection): 0.36 (0.05) % id/g
Hippocampus ([3]; 10 min post-injection): 0.43 (0.07) % id/g
Pons/Medulla ([3]; 10 min post-injection): 0.28 (0.05) % id/g
Pre-frontal cortex ([3]; 10 min post-injection): 0.53 (0.09) % id/g
Striatum ([3]; 10 min post-injection): 0.36 (0.04) % id/g
Cerebellum ([3]; 30 min post-injection): 0.23 (0.04) % id/g
Hippocampus ([3]; 30 min post-injection): 0.32 (0.05) % id/g
Pons/Medulla ([3]; 30 min post-injection): 0.18 (0.04) % id/g
Pre-frontal cortex ([3]; 30 min post-injection): 0.35 (0.07) % id/g
Striatum ([3]; 30 min post-injection): 0.21 (0.04) % id/g
Cerebellum ([3]; 60 min post-injection): 0.20 (0.05) % id/g
Hippocampus ([3]; 60 min post-injection): 0.26 (0.07) % id/g
Pons/Medulla ([3]; 60 min post-injection): 0.19 (0.05) % id/g
Pre-frontal cortex ([3]; 60 min post-injection): 0.24 (0.06) % id/g
Striatum ([3]; 60 min post-injection): 0.18 (0.04) % id/g
Pre-frontal cortex: thalmus ([3]; 0.5 min post-injection): 1.13
Pre-frontal cortex: thalmus ([3]; 2 min post-injection): 1.23
Pre-frontal cortex: thalmus ([3]; 10 min post-injection): 1.35
Pre-frontal cortex: thalmus ([3]; 30 min post-injection): 1.44
Pre-frontal cortex: thalmus ([3]; 60 min post-injection): 1.21

CCOC(=O)c1ncn2c1CN(CC[18F])C(=O)c1cc(F)ccc1-2 [[18F]FEFMZ, [18F]fluoroethylflumazenil]
Clearance following administration in vivo ([2]; in vivo): too rapid

CCOC(=O)c1ncn2c1CN(C)C(=O)c1cc([18F])ccc1-2 [[18F]FMZ, [18F]flumazenil]
Ki ([1]; prior art statement): ~0.5 nM

CN1Cc2c(C(=O)OC(C)(C)C)ncn2-c2ccc(OCC[18F])cc2C1=O [[18F]-Compound 2]
Time at which regional differentiation remained apparent [3]: 10 minutes pi
Pituitary gland ([3]; 0.5 min): 0.82 (0.21) % id/g
Thalamus ([3]; 0.5 min): 0.67 (0.12) % id/g
Pituitary gland ([3]; 2 min): 1.07 (0.19) % id/g
Thalamus ([3]; 2 min): 0.78 (0.20) % id/g
Pituitary gland ([3]; 10 min): 0.69 (0.11) % id/g
Thalamus ([3]; 10 min): 0.69 (0.12) % id/g
Pituitary gland ([3]; 30 min): 0.64 (0.04) % id/g
Thalamus ([3]; 30 min): 0.62 (0.12) % id/g
Pituitary gland ([3]; 60 min): 0.51 (0.04) % id/g
Thalamus ([3]; 60 min): 0.49 (0.02) % id/g
Time of peak whole brain uptake [3]: 2 minutes pi
Whole brain uptake, peak [3]: 0.82%
Clearance from whole brain after peak uptake [3]: slow with a decreasing rate
Regional differentiation between GABA-rich and GABA-poor regions of the brain [3]: good
Cerebellum ([3]; 0.5 min post-injection): 0.75 (0.10) % id/g
Hippocampus ([3]; 0.5 min post-injection): 0.63 (0.08) % id/g
Pons/Medulla ([3]; 0.5 min post-injection): 0.58 (0.09) % id/g
Pre-frontal cortex ([3]; 0.5 min post-injection): 0.80 (0.05) % id/g
Striatum ([3]; 0.5 min post-injection): 0.63 (0.05) % id/g
Cerebellum ([3]; 2 min post-injection): 0.82 (0.19) % id/g
Hippocampus ([3]; 2 min post-injection): 0.89 (0.20) % id/g
Pons/Medulla ([3]; 2 min post-injection): 0.61 (0.14) % id/g
Pre-frontal cortex ([3]; 2 min post-injection): 1.07 (0.29) % id/g
Striatum ([3]; 2 min post-injection): 0.71 (0.16) % id/g
Cerebellum ([3]; 10 min post-injection): 0.74 (0.08) % id/g
Hippocampus ([3]; 10 min post-injection): 0.94 (0.06) % id/g
Pons/Medulla ([3]; 10 min post-injection): 0.56 (0.09) % id/g
Pre-frontal cortex ([3]; 10 min post-injection): 1.04 (0.15) % id/g
Striatum ([3]; 10 min post-injection): 0.61 (0.10) % id/g
Cerebellum ([3]; 30 min post-injection): 0.59 (0.06) % id/g
Hippocampus ([3]; 30 min post-injection): 0.75 (0.03) % id/g
Pons/Medulla ([3]; 30 min post-injection): 0.52 (0.05) % id/g
Pre-frontal cortex ([3]; 30 min post-injection): 0.75 (0.06) % id/g
Striatum ([3]; 30 min post-injection): 0.55 (0.096) % id/g
Cerebellum ([3]; 60 min post-injection): 0.47 (0.02) % id/g
Hippocampus ([3]; 60 min post-injection): 0.53 (0.01) % id/g
Pons/Medulla ([3]; 60 min post-injection): 0.45 (0.02) % id/g
Pre-frontal cortex ([3]; 60 min post-injection): 0.51 (0.03) % id/g
Striatum ([3]; 60 min post-injection): 0.45 (0.02) % id/g
Pre-frontal cortex: thalmus ([3]; 0.5 min post-injection): 1.22
Pre-frontal cortex: thalmus ([3]; 2 min post-injection): 1.36
Pre-frontal cortex: thalmus ([3]; 10 min post-injection): 1.51
Pre-frontal cortex: thalmus ([3]; 30 min post-injection): 1.23
Pre-frontal cortex: thalmus ([3]; 60 min post-injection): 1.05
